# Reference: patent US8119645B2, “Fungicide hydroximoyl-tetrazole derivatives” (Bayer Cropscience AG, priority 2006, dated 2012)
# Assay: logP by reversed-phase HPLC (EEC Directive 79/831 Annex V.A8)
# Assay type: physicochemical
# Conditions: for LogP: HPLC C18, 40° C., 0.1% aqueous formic acid / acetonitrile gradient
chromatographic logP,SMILES,LogP
–,CCCCCOC(=O)Nc1cccc(CON=C(c2csc(-c3ccccc3)n2)c2nnnn2C)n1 [Compound 177],4.56
–,Cn1nnnc1C(=NOCc1cccc(NC(=O)C(C)(C)C)n1)c1csc(-c2ccccc2)n1 [Compound 176],3.7
–,Cc1nnnn1C(=NOCc1csc(NC(=O)c2ccccc2)n1)c1ccsc1Cl [Compound 4],3.26
–,Cc1ccc(C(=NOCc2csc(NC(=O)Cc3ccccc3)n2)n2nnnc2C)s1 [Compound 116],3.35
–,Cc1ccc(C(=NOCc2csc(NC(=O)c3ccccc3)n2)n2nnnc2C)o1 [Compound 63],2.96
–,CCCCCCCCC(=O)Nc1nc(CON=C(c2ccc(-c3ccccc3)o2)n2nnnc2C)cs1 [Compound 135],5.01
–,Cc1ccc(C(=NOCc2csc(NC(=O)C3CC3)n2)n2nnnc2C)o1 [Compound 68],2.41
–,Cc1nnnn1C(=NOCc1csc(N)n1)c1ccc(-c2ccc(Cl)c(Cl)c2)o1 [Compound 81],2.83
–,CCCCCOC(=O)Nc1cccc(CON=C(c2ccc(C)s2)n2nnnc2C)n1 [Compound 126],4.34
–,Cc1nnnn1C(=NOCc1csc(NC(=O)C(C)C)n1)c1ccc(-c2ccccc2)o1 [Compound 134],3.27
–,COCCOCC(=O)Nc1cccc(CON=C(c2ccsc2Cl)n2nnnc2C)n1 [Compound 15],2.61
2.94,"Cc1nnnn1/C(=N/OCc1csc(NC(=O)C(C)(C)C)n1)c1ccsc1 [Compound 18, O-(2-tert-Butylcarbonylamino-1,3-thiazol-4-yl)methyl-(thien-3-yl)-(5-methyltetrazol-1-yl)methanone oxime]",–
–,Cc1nnnn1C(=NOCCc1csc(N)n1)c1ccsc1 [Compound 50],1.16
–,Cc1ccc(C(=NOCc2csc(NC(=O)C(C)C)n2)n2nnnc2C)o1 [Compound 66],2.57
–,COCCOCC(=O)Nc1nc(CON=C(c2ccc(C)s2)n2nnnc2C)cs1 [Compound 129],2.6
–,Cc1nnnn1C(=NOCc1cccc(N)n1)c1ccsc1 [Compound 19],1.28
–,Cc1nnnn1C(=NOCc1csc(NC(=O)CCCc2ccccc2)n1)c1ccc(Br)s1 [Compound 88],4.04
–,Cn1nnnc1C(=NOCc1cccc(NC(=O)Cc2ccccc2)n1)c1csc(-c2ccccc2)n1 [Compound 175],3.72
–,COCCOCC(=O)Nc1nc(CON=C(c2ccc(C)o2)n2nnnc2C)cs1 [Compound 70],2.23
–,Cc1ccc(C(=NOCc2csc(NC(=O)C(C)(C)C)n2)n2nnnc2C)o1 [Compound 59],2.95
–,CCCCCC(=O)Nc1cccc(CON=C(c2ccsc2Cl)n2nnnc2C)n1 [Compound 3],3.65

chromatographic logP,SMILES,LogP
–,Cc1nnnn1C(=NOCc1csc(NC(=O)C2CCCCC2)n1)c1ccsc1 [Compound 29],3.32
–,CCCCCC(=O)Nc1nc(CON=C(c2ccc(Br)s2)n2nnnc2C)cs1 [Compound 92],3.92
–,Cc1nnnn1C(=NOCc1csc(NC(=O)C(C)C)n1)c1ccsc1 [Compound 31],2.55
–,Cc1nnnn1C(=NOCc1csc(NC(=O)C(C)(C)C)n1)c1ccc(-c2ccccc2)s1 [Compound 53],4.24
–,Cc1nnnn1C(=NOCc1csc(NC(=O)NCc2ccccc2)n1)c1ccc(Cl)s1 [Compound 105],3.32
–,Cc1ccc(C(=NOCc2csc(NC(=O)NCc3ccccc3)n2)n2nnnc2C)s1 [Compound 117],3.17
–,COCCOC(=O)Nc1cccc(CON=C(c2ccc(C)o2)n2nnnc2C)n1 [Compound 73],2.53
–,Cc1nnnn1C(=NOCc1csc(NC(=O)c2ccccc2)n1)c1ccc(Br)s1 [Compound 91],3.61
–,CCCC(=O)Nc1nc(CON=C(c2ccc(-c3ccccc3)s2)n2nnnc2C)cs1 [Compound 56],3.87
–,Cc1nnnn1C(=NOCc1csc(NC(=O)NCCc2ccccc2)n1)c1ccc(Cl)s1 [Compound 104],3.64
–,CCCCCCCCC(=O)Nc1nc(CON=C(c2ccsc2)n2nnnc2C)cs1 [Compound 41],4.51
–,Cc1ccc(C(=NOCc2csc(NC(=O)CCCc3ccccc3)n2)n2nnnc2C)s1 [Compound 121],3.81
–,Cc1nnnn1C(=NOCc1csc(NC(=O)NC(C)C)n1)c1ccsc1 [Compound 26],2.32
–,Cc1nnnn1C(=NOCc1csc(NC(=O)Cc2ccccc2)n1)c1ccc(Cl)s1 [Compound 103],3.62
–,CCCCCC(=O)Nc1nc(CON=C(c2ccsc2Cl)n2nnnc2C)cs1 [Compound 13],3.59
–,Cc1nnnn1C(=NOCc1csc(NC(=O)C(C)C)n1)c1ccc(Br)s1 [Compound 94],3.22
–,Cc1nnnn1C(=NOCc1csc(NC(=O)C2CC2)n1)c1ccc(-c2ccc(Cl)c(Cl)c2)o1 [Compound 84],3.83
–,CCCCCC(=O)Nc1nc(CON=C(c2ccc(C)s2)n2nnnc2C)cs1 [Compound 120],3.76
–,Cc1nnnn1C(=NOCc1csc(NC(=O)C(C)(C)C)n1)c1ccc(Cl)s1 [Compound 102],3.73
–,Cc1nnnn1C(=NOCc1csc(NC(=O)CCCc2ccccc2)n1)c1ccsc1 [Compound 45],3.49
–,CCCCCNC(=O)Nc1nc(CON=C(c2ccsc2)n2nnnc2C)cs1 [Compound 22],2.99

chromatographic logP,SMILES,LogP
–,COCCOC(=O)Nc1nc(CON=C(c2ccc(C)o2)n2nnnc2C)cs1 [Compound 71],2.37
–,Cc1nnnn1C(=NOCc1csc(NC(=O)CCc2ccccc2)n1)c1ccc(Cl)s1 [Compound 108],3.85
–,Cc1nnnn1C(=NOCc1csc(NC(=O)NC2CCCCC2)n1)c1ccsc1 [Compound 25],2.92
–,Cc1ccc(C(=NOCc2cccc(N)n2)n2nnnc2C)s1 [Compound 124],1.51
–,CCCCCC(=O)Nc1nc(CON=C(c2csc(-c3ccccc3)n2)c2nnnn2C)cs1 [Compound 171],3.94
–,Cc1nnnn1C(=NOCc1csc(NC(=O)C2CCCC2)n1)c1ccsc1 [Compound 39],3.05
–,C=CCC(=O)Nc1nc(CON=C(c2ccsc2)n2nnnc2C)cs1 [Compound 40],2.51
–,Cc1nnnn1C(=NOCc1cccc(N)n1)c1ccsc1Cl [Compound 14],1.39
4.06,"CCCCCC(=O)Nc1cccc(CO/N=C(\c2csc(-c3ccccc3)n2)c2nnnn2C)n1 [Compound 178, O-(2-Pentylcarbonylaminopyridin-6-yl)methyl-(2-phenyl-1,3-thiazol-4-yl)-(1-methyitetrazol-5-yl)methanone oxime]",–
–,Cc1nnnn1C(=NOCc1csc(NC(=O)CCc2ccccc2)n1)c1ccsc1Cl [Compound 9],3.45
–,CCCCCCCCC(=O)Nc1nc(CON=C(c2cc(-c3ccccc3)c(Cl)s2)n2nnnc2C)cs1 [Compound 78],5.94
–,C=CCNC(=O)Nc1nc(CON=C(c2ccsc2)n2nnnc2C)cs1 [Compound 27],2.22
–,Cc1nnnn1C(=NOCc1csc(NC(=O)C2CC2)n1)c1cc(-c2ccccc2)c(Cl)s1 [Compound 77],4.03
–,COCCOC(=O)Nc1nc(CON=C(c2ccsc2)n2nnnc2C)cs1 [Compound 49],2.3
–,Cn1nnnc1C(=NOCc1csc(NC(=O)Cc2ccccc2)n1)c1csc(-c2ccccc2)n1 [Compound 172],3.58
–,Cc1nnnn1C(=NOCc1csc(NC(=O)OCCc2ccccc2)n1)c1ccsc1 [Compound 44],3.46
–,CCCCCC(=O)Nc1nc(CON=C(c2ccsc2)n2nnnc2C)cs1 [Compound 30],3.25
–,CCCC(=O)Nc1nc(CON=C(c2cc(-c3ccccc3)c(Cl)s2)n2nnnc2C)cs1 [Compound 79],4.18
–,Cn1nnnc1C(=NOCc1csc(NC(=O)C(C)(C)C)n1)c1csc(-c2ccccc2)n1 [Compound 170],3.62
–,Cc1ccc(C(=NOCc2cccc(NC(=O)OCCc3ccccc3)n2)n2nnnc2C)o1 [Compound 75],3.78
–,Cc1nnnn1C(=NOCc1csc(NC(=O)NC2CCCC2)n1)c1ccsc1 [Compound 28],2.65

chromatographic logP,SMILES,LogP
–,Cc1nnnn1C(=NOCc1csc(NC(=O)C(C)(C)C)n1)c1ccc(Br)s1 [Compound 87],3.74
–,COCCOC(=O)Nc1cccc(CON=C(c2ccsc2Cl)n2nnnc2C)n1 [Compound 17],2.66
–,Cc1nnnn1C(=NOCc1csc(N)n1)c1ccc(-c2ccccc2)o1 [Compound 131],2.13
–,Cc1nnnn1C(=NOCc1csc(NC(=O)C2CC2)n1)c1ccc(Br)s1 [Compound 96],3.04
–,Cc1nnnn1C(=NOCc1csc(NC(=O)NCCc2ccccc2)n1)c1ccsc1 [Compound 24],2.86
–,Cc1nnnn1C(=NOCc1csc(NC(=O)OCc2ccccc2)n1)c1ccsc1 [Compound 46],3.24
–,CCCCCC(=O)Nc1cccc(CON=C(c2ccc(C)s2)n2nnnc2C)n1 [Compound 127],3.79
–,Cc1ccc(C(=NOCc2csc(NC(=O)C3CCCC3)n2)n2nnnc2C)o1 [Compound 62],2.98
–,Cc1ccc(C(=NOCc2csc(NC(=O)COCc3ccccc3)n2)n2nnnc2C)o1 [Compound 67],3.12
–,Cc1nnnn1C(=NOCc1csc(NC(=O)C2CCCC2)n1)c1ccc(Br)s1 [Compound 90],3.66
–,Cc1ccc(C(=NOCc2csc(NC(=O)NCCc3ccccc3)n2)n2nnnc2C)s1 [Compound 118],3.33
–,Cc1nnnn1C(=NOCc1csc(N)n1)c1cc(-c2ccccc2)c(Cl)s1 [Compound 76],2.86
–,Cc1nnnn1C(=NOCc1csc(NC(=O)CCCCl)n1)c1ccc(-c2ccccc2)o1 [Compound 136],3.39
–,CCCCCC(=O)Nc1cccc(CON=C(c2ccsc2)n2nnnc2C)n1 [Compound 36],3.39
–,Cc1ccc(C(=NOCc2cccc(N)n2)n2nnnc2C)o1 [Compound 72],1
–,CCCCCOC(=O)Nc1nc(CON=C(c2csc(-c3ccccc3)n2)c2nnnn2C)cs1 [Compound 167],4.29
–,Cc1ccc(C(=NOCc2cccc(NC(=O)OCCc3ccccc3)n2)n2nnnc2C)s1 [Compound 125],4.02
–,Cc1nnnn1C(=NOCc1cccc(NC(=O)c2ccccc2)n1)c1ccsc1Cl [Compound 1],3.26
–,Cc1ccc(C(=NOCc2csc(N)n2)n2nnnc2C)s1 [Compound 113],1.8
